Test results: US12692267B2 (Madera Therapeutics, LLC, priority 2019, dated 2026)
pIC50: −log10 of the molar value. Values belong to the compound of their own block, whether it stands above or below them.

Columns and labels:
[1] = tested on: HCT116 (human colon cancer); test: Cancer cell viability, CCK-8, HCT116; assay type: cell-based; details: Homo sapiens, HCT-116, 48 h, HCT116, 48 hours, CCK-8; read-out: EC50 (uM, HCT116)
Protocol: (§1) Cancer cell lines. […] The plate is incubated for 48 hours.
(§2) CCK-8 solution is added directly to the cells.

[2] = tested on: MDA-MB-231 (MDA 231, human breast adenocarcinoma); test: Cancer cell viability, CCK-8, MDA-MB-231; assay type: cell-based; details: Homo sapiens, MDA-MB-231; MDA 231, 48 hours, CCK-8; read-out: EC50 (uM, MDA 231)
Protocol: as §1, §2

ALAS1 (SEQ ID NO. 2) = test: ALAS1 Western blotting time courses (FIG. 15-17); details: Ex. 85 at 50 nM; 30 minute, sustained over 24 hrs
[3] = tested on: AN3CA (human uterine cancer); test: Cell viability CCK8, 72 hours, AN3CA; assay type: cell-based; details: AN3-CA, 72 hours of drug incubation
Protocol: (§3) For cancer cell lines, AN3CA (human uterine/endometrial cancer, Van Nyen, T. et al Int. J. Mol. Sci. 2018, 19, 2348 and referenced cited therein) cell line and Capan-2 (human pancreatic adenocarcinoma) cell line additional details for testing are as follows. Using 96 well cell culture plate (Corning Costar, Cat #3599), after addition of the test compound (Example 65, or other) the plate is incubated at 37° C., 5% CO2 for 72 hours. Cell viability was determined using CCK8 assay by adding […] of CCK8 into the assay well, incubate the plate for 2 hours and record […] using a SpectraMax i3X reader. Other 72 hour incubation studies can also using these details in addition to other experimental details described herein.
(§4) Example 65 was examined in AN3CA (human uterine cancer) and Capan-2 (human pancreatic adenocarcinoma) cancer cell lines.

[4] = tested on: Capan-2 (human pancreatic adenocarcinoma); test: Cell viability CCK8, 72 hours, Capan-2; assay type: cell-based; details: 72 hours of drug incubation
Protocol: as §3, §4

[5] = tested on: SUM159 triple negative breast cancer cells; test: Immunoblot of mitochondrial proteins, SUM159 (FIG. 12); assay type: cell-based; details: SUM159, 100 nM, 3-48 hrs
Protocol: (§5) Immunoblot of SUM159 or MDA-MB-231 cells following 0.1% DMSO (48 hrs) or 100 nM Ex. 65 for indicated timepoints (3-48 hrs) for indicated proteins.

[6] = tested on: MDA-MB-231 triple negative breast cancer cells; test: Immunoblot of mitochondrial proteins, MDA-MB-231 (FIG. 12); assay type: cell-based; details: MDA-MB-231, 100 nM, 3-48 hrs
Protocol: as §5

[7] = target: recombinant human caseinolytic peptidase hClpP (Homo sapiens, UniProt Q16740); test: hClpP peptide hydrolysis assay (Ac-WLA-AMC); details: Protocol 2, purified hClpP, Ac-WLA-AMC
recombinant human caseinolytic peptidase hClpP, sequence (Q16740 57-277): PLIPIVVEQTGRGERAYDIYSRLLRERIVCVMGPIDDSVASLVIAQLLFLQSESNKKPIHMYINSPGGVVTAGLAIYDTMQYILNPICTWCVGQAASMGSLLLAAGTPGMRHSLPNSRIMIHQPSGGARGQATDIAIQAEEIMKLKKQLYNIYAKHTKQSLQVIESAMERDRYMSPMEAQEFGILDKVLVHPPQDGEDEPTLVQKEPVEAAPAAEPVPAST
Protocol: Briefly, the activity of recombinant hClpP proteolytic subunit (1 μg/mL) was measured in the assay buffer composed of 50 mM Tris, 10 mM MgCl2, 100 mM KCl, 1 mM DTT, 4 mM ATP, 0.02% Triton X-100 and 5% Glycerol, pH 8.0 (HCl) using 10 µM of fluorogenic Ac-WLA-AMC substrate as described in references above. […] Using the first protocol (Protocol 1), the reaction was initiated by immediately mixing enzyme and substrate in the presence of indicated doses of compounds. Applying a second protocol (Protocol 2), the enzyme and compounds were mixed and incubated in assay buffer for 60 min before initiating the reaction by adding Ac-WLA-ACM substrate.
Enzymatic activity of hClpP was measured in assay buffer (as described in Experimental Procedure/Materials and Methods) and the level of fluorescence of liberated coumarin monitored continuously.

hClpP = target: T1, hClpP (Homo sapiens, UniProt Q16740); test: hClpP binding to immobilized compound Sepharose beads, Western blot
T1 construct: endogenous in cells; host or cells: HeLa cell lysate
T1 sequence (Q16740 57-277): as above

ClpX and TUFM = ClpX and TUFM Western blots in SUM159 cells (FIG. 5); details: concentration response and time course
SUM159, ClpP CRISPR KO = test: Growth of SUM159 versus SUM159 ClpP CRISPR KO cells (FIG. 6); details: SUM159 ClpP CRISPR KO compared to SUM159

EC50 [1]: 0.008 µM
EC50 [2]: 0.003 µM
SMILES: N#Cc1cccc(CN2CCc3cnn(Cc4ccc(Cl)cc4)c(=O)c3C2)c1 [Example 85, 3-((3-(4-chlorobenzyl)-4-oxo-3,5,7,8-tetrahydropyrido[3,4-d]pyridazin-6 (4H)-yl)methyl)benzonitrile]
ALAS1 protein level (FIG. 16) (ALAS1 (SEQ ID NO. 2)): rapidly degraded

EC50 [1]: 0.021 µM
pIC50 [3]: 9.00
pIC50 [4]: > 7.30
SMILES: N#Cc1cccc(CN2CCc3ncn(Cc4ccc(Cl)cc4)c(=O)c3C2)c1 [Example 65]
Mitochondrial protein degradation [5]: induces degradation of mitochondrial proteins in a time dependent manner
Mitochondrial protein degradation [6]: induces degradation of mitochondrial proteins in a time dependent manner
Dose-dependency of hClpP activation [7]: Dose-dependent increases in hClpP activity

EC50 [1]: 0.057 µM
hClpP binding to compound coupled to Sepharose beads (hClpP): directly binds
SMILES: N#Cc1cccc(CN2CCc3c(c(=O)n(Cc4ccc(C(F)(F)F)cc4)c(=O)n3CCCN)C2)c1 [Ex. 57, 3-((1-(3-aminopropyl)-2,4-dioxo-3-(4-(trifluoromethyl)benzyl)-1,2,3,4,7,8-hexahydropyrido[4,3-d]pyrimidin-6 (5H)-yl)methyl)benzonitrile]
Dose-dependency of hClpP activation [7]: dose-dependent increases in hClpP activity

SMILES: Cn1c2c(c(=O)n(Cc3ccc(Cl)cc3)c1=O)CN(Cc1cccc(C#N)c1)CC2 [TR57]
ClpX and TUFM protein level (ClpX and TUFM): reduction of the protein ClpX and TUFM
Effect on growth of ClpP CRISPR knockout cells (SUM159, ClpP CRISPR KO): resistant
